Here are results for two molecules from PMC3574189 (Journal of medicinal chemistry, 2013).

For one assay, the target named is PRI50V. Conditions: mutant PRI50V; ref [22], [23]; cited from earlier work.
For the next assay, the target named is PRD30N. Conditions: mutant PRD30N; ref [22], [23]; cited from earlier work.
Assay [1] concerns PRV82A (PR with V82A mutation). Description: Fluorescence assay of HIV-1 protease inhibition. The class given is biochemical. To be noted: PRV82A vs PRWT.
In assay [2] the test system is PRI54M (PR with I54M mutation). Put plainly: Fluorescence assay of HIV-1 protease inhibition. The class given is biochemical. Conditions: PRI54M vs PRWT.

SMILES strings stand for the structures.

For the molecule `CC(C)CN(C[C@@H](O)[C@H](Cc1ccccc1)NC(=O)O[C@H]1CO[C@H]2OCC[C@H]21)S(=O)(=O)c1ccc(N)cc1` [DRV, darunavir], the Ki at PRI50V is no more than 18 nM; on PRD30N it was 6.6 nM.

As to `COc1ccc(S(=O)(=O)N(CC(C)C)C[C@@H](O)[C@H](Cc2ccccc2)NC(=O)O[C@H]2CO[C@H]3O[C@@H]4OCC[C@@H]4[C@H]32)cc1` [Compound 1, GRL-0519], the “increased Ki relative to PRWT” value in assay [1] and in assay [2] was 6-7 fold in each case.
